Reference: patent publication US11083732B2, “Use of negative modulators of GABA receptors containing alpha5 subunits as fast acting antidepressants” (University of Maryland, Baltimore, priority 2014, dated 2021)
“Also recorded” adds a separate entry of the source.

Key:
[1] = tested on: rats subjected to chronic restraint stress; assay: Social interaction test (SIT) after chronic restraint stress (CRS); type: in vivo, rat; conditions: 10 days CRS; L-655,708 0.7 mg/kg i.p.; 24 hrs post-injection; vs baseline
From the text: (§1) MRK-016 rapidly reverses loss of sucrose preference and social interaction behaviors after chronic restraint stress (FIG. 9). […] This persisted for 7 days despite further stress exposure. and in the same animals after an additional week of CRS and 7 days after the injection of MRK-016.
(§2) Chronic restraint stress (CRS). Male Sprague Dawley rats (4-5 weeks-old; Harlan Laboratories) were placed in appropriately sized restraint tubes, highly restricting their movement for periods of four hours in a brightly lit lab, every day for ten days during the light phase of their diurnal cycle (Lim et al., 2012).
Social interaction test (SIT). As described previously (Berton et al., 2006), rats were placed in a plastic enclosure (82×82 cm) with a 5×5 grid of squares (16.4×16.4 cm) visible underneath the clear plastic flooring. A small translucent perforated plastic box (20×16 cm) was placed against the center of one wall of the arena. During the testing conditions white overhead fluorescent lighting was used to illuminate the arena. A video camera positioned 170 cm above the floor of the arena was used to track the movements of the rats during the experiment.
(§3) Each test consisted of a “target-absent” trial followed by a “target-present” trial. During testing, an individual test rat was placed in the center of the arena and, after 30s of adaptation, the rat's movements were recorded with the video camera for 2.5 minutes. […]
(§4) Results were quantified as the percentage of time spent in the “interaction zone” (the five grid squares immediately surrounding the plastic cage) as measured for both the “target-absent” and “target-present” trials. […]
(§5) Several hedonic behaviors in rodents are sensitive to chronic stress and are restored by chronic, but not acute, administration of SSRIs, providing one means to screen for potential antidepressant compounds. First, it was determined whether L-655,708 would rapidly (<24 hrs) restore normal hedonic behavior following chronic restraint stress (Watanabe et al., 1992; Lim et al., 2012), consistent with the rapid antidepressant-like actions of ketamine (Li et al., 2011). […]

forebrain binding sites = conditions: 0.7 mg/kg i.p.; Atack et al., 2005; cited from earlier work
[2] = tested on: chronically stressed rats; assay: Reversal of chronic stress-induced behavioral changes (SPT and SIT; CRS and CUS) overall; type: in vivo, rat
From the text: as §2
Chronic unpredictable stress (CUS). Male Sprague-Dawley rats (4-5 weeks-old; Harlan Laboratories) were randomly divided into control and CUS groups. Rats in the CUS group were individually housed. CUS animals were treated with two mild stressors every day for 5-6 weeks during their light phase (Willner et al., 1987). The stressors were randomly cycled to enhance unpredictability. […]
Sucrose preference test (SPT). […] Sucrose preference was calculated as amount of the sucrose solution consumed as a percentage of the total amount of liquid consumed. […]
as §5

[3] = tested on: rats subjected to chronic restraint stress; assay: Sucrose preference test (SPT) after chronic restraint stress (CRS); type: in vivo, rat; conditions: 10 days CRS; L-655,708 0.7 mg/kg i.p.; 24 hrs post-injection; vs pre-stress baseline
From the text: as §1, §2
(§6) Sucrose preference test (SPT). Rats were given a choice between two bottles containing tap water or a 1% sucrose solution (Rygula et al., 2006). Testing was conducted overnight (16 hours), including the full duration of their dark phase. Animals were first trained with both bottles while group-housed. For subsequent tests, including during the baseline period, animals were individually housed. Sucrose preference was calculated as amount of the sucrose solution consumed as a percentage of the total amount of liquid consumed.
Drugs/stats. L-655,708 was purchased from Tocris Bioscience (R&D Systems, Minneapolis, Minn.) and prepared at a concentration of 5 mM in 75% saline/25% DMSO. […] This dose is sufficient to occupy about 70% of forebrain binding sites (Atack et al., 2005)
as §5, with “2011). Baseline measurements were first made of social interaction and sucrose preference, and then 4-5 week old rats were subjected to ten days of CRS.” for “2011).”

[4] = tested on: rats subjected to chronic unpredictable stress; assay: Social interaction test (SIT) after chronic unpredictable stress (CUS); type: in vivo, rat
Method: (§7) Chronic unpredictable stress (CUS). Male Sprague-Dawley rats (4-5 weeks-old; Harlan Laboratories) were randomly divided into control and CUS groups. Rats in the CUS group were individually housed. CUS animals were treated with two mild stressors every day for 5-6 weeks during their light phase (Willner et al., 1987). The stressors were randomly cycled to enhance unpredictability. The stressors were: forced swim, in which rats were placed in a basin containing cold water for 5 minutes; strobe lighting, in otherwise total darkness for 30 minutes; restraint, during which rats were put into appropriately sized restraint tubes for 30 minutes; exposure to white noise for 30 minutes; and food or water deprivation for 14 hours spanning the dark phase.
Social interaction test (SIT). […]
as §3, §4

unstressed rats = assay: Sucrose preference and social interaction tests in unstressed rats; type: in vivo, rat; conditions: 24 hrs after injection
Method: as §6
Social interaction test (SIT). As described previously (Berton et al., 2006), rats were placed in a plastic enclosure (82×82 cm) with a 5×5 grid of squares (16.4×16.4 cm) visible underneath the clear plastic flooring. A small translucent perforated plastic box (20×16 cm) was placed against the center of one wall of the arena. […]
as §3, §4

[5] = tested on: rats subjected to chronic unpredictable stress; assay: Sucrose preference test (SPT) after chronic unpredictable stress (CUS); type: in vivo, rat; conditions: L-655,708 24 hours earlier
Method: Sucrose preference test. Rats are administered a sucrose preference test before chronic unpredictable stress or no stress. The left bar of the pairs (black) reflects CUS rats and the right bar of the pairs (white) reflects unstressed rats.
as §7
as §6, with “Animals were first trained with both bottles while group-housed. For subsequent tests, including during the baseline period, animals were individually housed.” left out

## CCOC(=O)c1ncn2c1[C@@H]1CCCN1C(=O)c1cc(OC)ccc1-2 [L-655,708, ethyl (13aS)-7-methoxy-9-oxo-11, 12,13,13 a-terahydro-9H-imidazo[1,5-a]pyrrolo[2,1-c] [1,4]benzodiazepine-1-carboxylate]
[1]
  social interaction ratio: not significantly different than baseline
Forebrain binding sites
  occupancy of forebrain binding sites: about 70%
[2]; CRS and CUS, 0.7 mg/kg i.p., model-independent
  time to reversal of chronic stress-induced depressive-like behavioral changes: less than 24 hrs
[2]; single injection, l mg/kg intraperitoneally, CUS and CRS
  time to reversal of loss of sucrose preference and decrease in social interaction: ≤ 24 h
[3]
  sucrose preference: not different from their pre-stress baseline
[4]; CUS 4 weeks plus one week, L-655,708 0.7 mg/kg i.p. 24 hrs earlier
  number of CUS rats in which social interaction was reversed: 14 of 18
[4]; CUS rats, single injection of L-655,708 0.7 mg/kg i.p. 24 hrs earlier
  social interaction: restores the behavior; also recorded: reversed to levels that were not significantly different than pre-stress baseline
Unstressed rats
  social interaction: no change
  sucrose preference: no change
[5]
  sucrose preference: restores the behavior; also recorded: restored sucrose preference
